# Data as given in patent US7135494B2, “Antitumoral carbazoles” (Pharma Mar, S.A., priority 2000, dated 2006).
# Where two headings read alike, the source gives them in different places.
# Legend:
# Format in all cases: cell-based
# [1] = system: Prostate (DU-145); assay: SRB colorimetric assay of cell growth and viability, DU-145; conditions: Homo sapiens, 24 wells/16 mm, 10,000 cells/72 h, read-out: IC50 (concentration that causes 50% growth inhibition)
# Method: (§1) Biological tests were carried out on coproverdine (the compound of Example 1 of the present application). A colorimetric type of assay, using sulforhodamine B (SRB) reaction, was used to provide a quantitative measurement of cell growth and viability. The technique described by Skehan, et al., J Natl. Cancer Inst., 1990, 82, 1107, was followed. The reader is also referred to the following references: • Faircloth et al. Journal of Tissue and Culture Methods, 1988, 11, 201. • Monks et al. Articles, 1991, 83, 757. • Mosmann et al. Journal of Immunological Methods, 1983, 65, 55.
# (§2) Further biological tests were carried out on coproverdine using similar methods. The results are given using the following cellular response parameters: GI=growth inhibition, TGI=total growth inhibition (cytostatic effect) and LC=cell killing (cytotoxic effect).
# [2] = system: P388 leukemia cell line; assay: SRB colorimetric assay of cell growth and viability, P388; conditions: Mus musculus
# Method: as §1, §2
# [3] = system: Colon (HT-29); assay: SRB colorimetric assay of cell growth and viability, HT-29
# Method: as §1, §2
# [4] = system: Lung (A-549); assay: SRB colorimetric assay of cell growth and viability, A-549
# Method: as §1, §2
# [5] = system: Melanoma (MEL-28); assay: SRB colorimetric assay of cell growth and viability, MEL-28; conditions: Homo sapiens, SK-MEL-28, 24 wells/16 mm, 10,000 cells/72 h, read-out: IC50 (concentration that causes 50% growth inhibition)
# Method: as §1, §2
# [6] = 96 wells/9 mm, 5,000 cells/48 h
structure (smiles),measurement,setting,value
"COC(=O)c1cccc2c3c(n(O)c12)C(O)(C=O)C=CC3=O (stereo not drawn) [coproverdine, 8-formyl-8,9-dihydroxy-5-oxo-8,9-dihydro-5H-carbazole-1-carboxylic acid methyl ester]",IC50,[1],0.3 µM
same,IC50,"[2]; P388, Leukemia (P-388), 24 wells/16 mm, 10,000 cells/72 h, read-out: IC50 (concentration that causes 50% growth inhibition)",1.6 µM
same,IC50,"[2]; P388 leukemia cell line, first test, read-out: IC50",0.95 mg/L
same,"TGI (total growth inhibition, cytostatic effect)",[3]; [6],16 µM
same,IC50,"[3]; Homo sapiens, 24 wells/16 mm, 10,000 cells/72 h, read-out: IC50 (concentration that causes 50% growth inhibition)",0.3 µM
same,GI50,"[3]; Homo sapiens, 96 wells/9 mm, 5,000 cells/48 h, read-out: GI50 (50% growth inhibition with correction for cell OD at time zero)",6 µM
same,CC50,"[3]; Homo sapiens, 96 wells/9 mm, 5,000 cells/48 h, read-out: LC50 (50% cell killing, cytotoxic effect)",50 µM
same,"TGI (total growth inhibition, cytostatic effect)",[4]; [6],15 µM
same,IC50,"[4]; Homo sapiens, A549, 24 wells/16 mm, 10,000 cells/72 h, read-out: IC50 (concentration that causes 50% growth inhibition)",0.3 µM
same,GI50,"[4]; Homo sapiens, A549, 96 wells/9 mm, 5,000 cells/48 h, read-out: GI50 (50% growth inhibition with correction for cell OD at time zero)",7 µM
same,CC50,"[4]; Homo sapiens, A549, 96 wells/9 mm, 5,000 cells/48 h, read-out: LC50 (50% cell killing, cytotoxic effect)",50 µM
same,IC50,[5],0.3 µM
